Each structure is given as a SMILES string. Counter-ions that a name gives are not always drawn.

As a reminder, the EC50 is the concentration needed to bring the measured effect to its halfway point. Read a high EC50 as weaker potency.

In one experiment the test system is Nrf2 transcriptional activity (pARE-Luc reporter) in HepG2 cells. Put plainly: In vitro Nrf2 transcriptional activity measurement by ARE-dependent reporter assay in HepG2 cell. The experiment is classed as cell-based, human. The following applies: HepG2 cells, pARE-Luc reporter, 4 hours; 100% = Example 1-54 or Example 17-23 at 3.75 μM (repeat print of Table 20-1). An outline of the steps:
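Luminescence readout (Bright-Glo) after 4 h, 37° C compound exposure of HepG2 cells carrying the ARE-luciferase vector pGL4.37. Each well converted to % response versus reference compound at 3.75 μM, and EC50 derived from dose-response curves.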
In general terms: In a reporter assay the amount or activity of a reporter protein is the signal.
Regarding `Cc1nc(N2CC3(C2)OCC(C)(C)CO3)cc(Cl)c1C(=O)N1COc2c(cccc2-c2cc(N3C4CCC3COC4)c(C(=O)O)cc2F)C1` [Compound 19-9, 4-[3-[4-Chloro-6-(7,7-dimethyl-5,9-dioxa-2-azaspiro[3.5]nonan-2-yl)-2-methylpyridine-3-carbonyl]-2,4-dihydro-1,3-benzoxazin-8-yl]-5-fluoro-2-(3-oxa-8-azabicyclo[3.2.1]octan-8-yl)benzoic acid], the EC50 was 1.4 nM.

The experiment is the same for the next values; noted with them: Homo sapiens; HepG2 cells transfected with pARE-Luc, 4 hours at 37° C.; luciferase activity of Example 1-54 or Example 17-23 at 3.75 μM defined as 100%.
Take `C[C@@H]1CN(c2cc(F)c(C(=O)N3COc4c(cccc4-c4cc(N5C6CCC5COC6)c(C(=O)O)cc4F)C3)c(Cl)c2)[C@H](C)CN1C` [Compound 19-3, 4-[3-[2-Chloro-6-fluoro-4-[(2R,5R)-2,4,5-trimethylpiperazin-1-yl]benzoyl]-2,4-dihydro-1,3-benzoxazin-8-yl]-5-fluoro-2-(3-oxa-8-azabicyclo[3.2.1]octan-8-yl)benzoic acid]: the EC50 is 1.2 nM.

For the compound `Cc1cc(N2C[C@@H](C)N(C)C[C@H]2C)cc(Cl)c1C(=O)N1COc2c(cccc2-c2cc(N3C4CCC3COC4)c(C(=O)O)cc2F)C1` [Compound 19-4, 4-[3-[2-Chloro-6-methyl-4-[(2R,5R)-2,4,5-trimethylpiperazin-1-yl]benzoyl]-2,4-dihydro-1,3-benzoxazin-8-yl]-5-fluoro-2-(3-oxa-8-azabicyclo[3.2.1]octan-8-yl)benzoic acid], the EC50 is 1.9 nM. Turning to `CC1(C)COC2(CN(c3cc(Cl)c(C(=O)N4COc5c(cccc5-c5cc(N6C7CCC6COC7)c(C(=O)O)cc5F)C4)c(C#N)c3)C2)OC1` [Compound 19-5, 4-[3-[2-Chloro-6-cyano-4-(7,7-dimethyl-5,9-dioxa-2-azaspiro[3.5]nonan-2-yl)benzoyl]-2,4-dihydro-1,3-benzoxazin-8-yl]-5-fluoro-2-(3-oxa-8-azabicyclo[3.2.1]octan-8-yl)benzoic acid], the concentration giving a half-maximal response (EC50) worked out at 2.7 nM.

For the compound `C[C@@H]1CN(c2cnc(C(=O)N3COc4c(cccc4-c4cc(N5C6CCC5COC6)c(C(=O)O)cc4F)C3)c(Cl)c2)[C@H](C)CN1C` [Compound 19-6, 4-[3-[3-Chloro-5-[(2R,5R)-2,4,5-trimethylpiperazin-1-yl]pyridine-2-carbonyl]-2,4-dihydro-1,3-benzoxazin-8-yl]-5-fluoro-2-(3-oxa-8-azabicyclo[3.2.1]octan-8-yl)benzoic acid], the EC50 is 6.3 nM. `C[C@@H]1CN(C)CCN1c1cc(F)c(C(=O)N2COc3c(cccc3-c3cc(N4C5CCC4COC5)c(C(=O)O)cc3F)C2)c(Cl)c1` [Compound 19-7, 4-[3-[2-Chloro-4-[(2R)-2,4-dimethylpiperazin-1-yl]-6-fluorobenzoyl]-2,4-dihydro-1,3-benzoxazin-8-yl]-5-fluoro-2-(3-oxa-8-azabicyclo[3.2.1]octan-8-yl)benzoic acid] showed an EC50 of 2.3 nM. Take `C[C@@H]1CN(C)CCN1c1ccc(C(=O)N2COc3c(cccc3-c3cc(N4C5CCC4COC5)c(C(=O)O)cc3F)C2)c(Cl)c1` [Compound 19-8, 4-[3-[2-Chloro-4-[(2R)-2,4-dimethylpiperazin-1-yl]benzoyl]-2,4-dihydro-1,3-benzoxazin-8-yl]-5-fluoro-2-(3-oxa-8-azabicyclo[3.2.1]octan-8-yl)benzoic acid]: the midpoint of the response, the EC50, lay at 3.9 nM.

For the compound `CC1(C)COC2(CN(c3cc(F)c(C(=O)N4COc5c(cccc5-c5cc(N6C7CCC6COC7)c(C(=O)O)cc5F)C4)c(Cl)c3)C2)OC1` [Compound 19-10, 4-[3-[2-Chloro-4-(7,7-dimethyl-5,9-dioxa-2-azaspiro[3.5]nonan-2-yl)-6-fluorobenzoyl]-2,4-dihydro-1,3-benzoxazin-8-yl]-5-fluoro-2-(3-oxa-8-azabicyclo[3.2.1]octan-8-yl)benzoic acid], it took 2.5 nM to reach a half-maximal effect (EC50). In turn, `CC1(C)COC2(CN(c3ccc(C(=O)N4COc5c(cccc5-c5cc(N6C7CCC6COC7)c(C(=O)O)cc5F)C4)c(Cl)c3)C2)OC1` [Compound 19-11, 4-[3-[2-Chloro-4-(7,7-dimethyl-5,9-dioxa-2-azaspiro[3.5]nonan-2-yl)benzoyl]-2,4-dihydro-1,3-benzoxazin-8-yl]-5-fluoro-2-(3-oxa-8-azabicyclo[3.2.1]octan-8-yl)benzoic acid] registered an EC50 of 4.3 nM. In the case of `Cn1nnc2c(N3CC4(C3)OCC(C)(C)CO4)cc(Cl)c(C(=O)N3COc4c(cccc4-c4cc(N5C6CCC5COC6)c(C(=O)O)cc4F)C3)c21` [Compound 19-12, 4-[3-[5-Chloro-7-(7,7-dimethyl-5,9-dioxa-2-azaspiro[3.5]nonan-2-yl)-3-methylbenzotriazole-4-carbonyl]-2,4-dihydro-1,3-benzoxazin-8-yl]-5-fluoro-2-(3-oxa-8-azabicyclo[3.2.1]octan-8-yl)benzoic acid], the EC50 turned out to be 2.5 nM. In turn, `Cn1nc2c(N3CC4(C3)OCC(C)(C)CO4)cc(Cl)c(C(=O)N3COc4c(cccc4-c4cc(N5C6CCC5COC6)c(C(=O)O)cc4F)C3)c2n1` [Compound 19-13, 4-[3-[5-Chloro-7-(7,7-dimethyl-5,9-dioxa-2-azaspiro[3.5]nonan-2-yl)-2-methylbenzotriazole-4-carbonyl]-2,4-dihydro-1,3-benzoxazin-8-yl]-5-fluoro-2-(3-oxa-8-azabicyclo[3.2.1]octan-8-yl)benzoic acid] gave an EC50 of 2.1 nM.

In turn, `Cn1nnc2c(C(=O)N3COc4c(cccc4-c4cc(N5C6CCC5COC6)c(C(=O)O)cc4F)C3)c(Cl)cc(N3CC4(C3)OCC(C)(C)CO4)c21` [Compound 19-14, 4-[3-[5-Chloro-7-(7,7-dimethyl-5,9-dioxa-2-azaspiro[3.5]nonan-2-yl)-1-methylbenzotriazole-4-carbonyl]-2,4-dihydro-1,3-benzoxazin-8-yl]-5-fluoro-2-(3-oxa-8-azabicyclo[3.2.1]octan-8-yl)benzoic acid] came in with an EC50 of 4.1 nM. For the compound `COC1CC2(C1)CN(c1cc(Cl)c(C(=O)N3COc4c(cccc4-c4cc(N5C6CCC5COC6)c(C(=O)O)cc4F)C3)c3c1nc(C)n3C)C2` [Compound 19-15, 4-[3-[5-Chloro-7-(6-methoxy-2-azaspiro[3.3]heptan-2-yl)-2,3-dimethylbenzimidazole-4-carbonyl]-2,4-dihydro-1,3-benzoxazin-8-yl]-5-fluoro-2-(3-oxa-8-azabicyclo[3.2.1]octan-8-yl)benzoic acid], the EC50 was found to be 2.3 nM. For the compound `COC1CC2(C1)CN(c1cc(Cl)c(C(=O)N3COc4c(cccc4-c4cc(N5C6CCC5COC6)c(C(=O)O)cc4F)C3)c3nc(C)n(C)c13)C2` [Compound 19-16, 4-[3-[5-Chloro-7-(6-methoxy-2-azaspiro[3.3]heptan-2-yl)-1,2-dimethylbenzimidazole-4-carbonyl]-2,4-dihydro-1,3-benzoxazin-8-yl]-5-fluoro-2-(3-oxa-8-azabicyclo[3.2.1]octan-8-yl)benzoic acid], the concentration giving a half-maximal response (EC50) was 17 nM. In turn, `CN1CCC2(CC1)CN(c1cc(Cl)c(C(=O)N3COc4c(cccc4-c4cc(N5C6CCC5COC6)c(C(=O)O)cc4F)C3)c(Cl)c1)C2` [Compound 19-17, 4-[3-[2,6-Dichloro-4-(7-methyl-2,7-diazaspiro[3.5]nonan-2-yl)benzoyl]-2,4-dihydro-1,3-benzoxazin-8-yl]-5-fluoro-2-(3-oxa-8-azabicyclo[3.2.1]octan-8-yl)benzoic acid] returned an EC50 of 6.1 nM. On to `CC[C@@H]1CN(C)CCN1c1cc(Cl)c(C(=O)N2COc3c(cccc3-c3cc(N4C5CCC4COC5)c(C(=O)O)cc3F)C2)c(Cl)c1` [Compound 19-18, 4-[3-[2,6-Dichloro-4-[(2R)-2-ethyl-4-methylpiperazin-1-yl]benzoyl]-2,4-dihydro-1,3-benzoxazin-8-yl]-5-fluoro-2-(3-oxa-8-azabicyclo[3.2.1]octan-8-yl)benzoic acid], for which the EC50 is 1.3 nM. Take `COC[C@@H]1CN(C)CCN1c1cc(Cl)c(C(=O)N2COc3c(cccc3-c3cc(N4C5CCC4COC5)c(C(=O)O)cc3F)C2)c(Cl)c1` [Compound 19-19, 4-[3-[2,6-Dichloro-4-[(2S)-2-(methoxymethyl)-4-methylpiperazin-1-yl]benzoyl]-2,4-dihydro-1,3-benzoxazin-8-yl]-5-fluoro-2-(3-oxa-8-azabicyclo[3.2.1]octan-8-yl)benzoic acid]: the EC50 stood at 2.6 nM. Compared with the last compound, the EC50 is about 2-fold higher. On the same count and under the same terms, as for `Cn1cc(-c2cc(Cl)c(C(=O)N3COc4c(cccc4-c4cc(N5C6COCC5C6)c(C(=O)O)cc4F)C3)c(Cl)c2)cn1` [Compound 20-1, 4-[3-[2,6-Dichloro-4-(1-methylpyrazol-4-yl)benzoyl]-2,4-dihydro-1,3-benzoxazin-8-yl]-5-fluoro-2-(3-oxa-6-azabicyclo[3.1.1]heptan-6-yl)benzoic acid N,N-diethylethanamine salt], the figure is 850 nM; as for `CN1C[C@H]2CC[C@@H]1CN2c1cc(Cl)c(C(=O)N2COc3c(cccc3-c3cc(N4C5CCC4COC5)c(C(=O)O)cc3F)C2)c(Cl)c1` [Compound 20-2, 4-[3-[2,6-Dichloro-4-[(1R,4R)-5-methyl-2,5-diazabicyclo[2.2.2]octan-2-yl]benzoyl]-2,4-dihydro-1,3-benzoxazin-8-yl]-5-fluoro-2-(3-oxa-8-azabicyclo[3.2.1]octan-8-yl)benzoic acid], 24 nM. Same read-out and setting: in the case of `CN1C[C@@H]2CC[C@H]1CN2c1cc(Cl)c(C(=O)N2COc3c(cccc3-c3cc(N4C5CCC4COC5)c(C(=O)O)cc3F)C2)c(Cl)c1` [Compound 20-3, 4-[3-[2,6-Dichloro-4-[(1S,4S)-5-methyl-2,5-diazabicyclo[2.2.2]octan-2-yl]benzoyl]-2,4-dihydro-1,3-benzoxazin-8-yl]-5-fluoro-2-(3-oxa-8-azabicyclo[3.2.1]octan-8-yl)benzoic acid] it was 40 nM; in that of `CN1C2CC1CN(c1cc(Cl)c(C(=O)N3COc4c(cccc4-c4cc(N5C6CCC5COC6)c(C(=O)O)cc4F)C3)c(Cl)c1)C2` [Compound 20-4, 4-[3-[2,6-Dichloro-4-(6-methyl-3,6-diazabicyclo[3.1.1]heptan-3-yl)benzoyl]-2,4-dihydro-1,3-benzoxazin-8-yl]-5-fluoro-2-(3-oxa-8-azabicyclo[3.2.1]octan-8-yl)benzoic acid], 150 nM.

Source of the values: patent US20250171457A1, “NITROGEN-CONTAINING HETEROCYCLIC COMPOUND HAVING NRF2 ACTIVATION EFFECT” (CHUGAI SEIYAKU KABUSHIKI KAISHA, priority 2022, published 2025).
